The assay has as its system HCV (1b) replicon, Huh-ET cells. Description: Cell-based luciferase reporter HCV (1b) RNA replication assay. The settings on record: Hepatitis C virus, 96 h; HCV 1b replicon, luciferase, 4 days incubation; read-out: EC50_1b. The source says: Cell-Based Luciferase Reporter HCV (Ib) RNA Replication Assay Cell Culture
Replicon cell lines Huh-5.2 are derived from the Huh-7 hepatocarcinoma cell line are maintained in culture as generally described in Krieger, N; Lohmann, V; Bartenschlager, R. Enhancement of hepatitis C virus RNA replication by cell culture-adaptive mutations. J. Virol. 2001, 75, 4614-4624. The Huh-5.2 cells contain the highly cell culture-adapted replicon I389luc-ubi-neo/NS3-375.1 construct that carries, in addition to the neomycin gene, an integrated copy to the firefly luciferase gene (Krieger, N; Lohmann, V; Bartenschlager, R. Enhancement of hepatitis C virus RNA replication by cell culture-adaptive mutations. J. Virol. 2001, 75, 4614-4624). This cell line allows measurement of HCV RNA replication and translation by measuring luciferase activity. It has been previously shown that the luciferase activity tightly follows the replicon RNA level in these cells (Krieger, N; Lohmann, V; Bartenschlager, R. Enhancement of hepatitis C virus RNA replication by cell culture-adaptive mutations. J. Virol. 2001, 75, 4614-4624). The Huh-ET cell line has the same features as those mentioned for Huh-5.2 cell line, except that ET cells are more robust and contain an adaptative mutation in the HCV NS4B gene instead of NS5A. Both cell lines are maintained in cultures at a sub-confluent level (<85%) as the level of replicon RNA is highest in actively proliferating cells. The culture media used for cell passaging consist of DMEM (Gibco BRL Laboratories, Mississauga, ON, Canada) supplemented with 10% foetal bovine serum with 1% penicilin/streptomycin, 1% glutamine, 1% sodium pyruvate, 1% non-essential amino acids, and 180 μg/ml of G418 final concentration. Cells are incubated at 37° C., in an atmosphere of 5% CO2 and passaged twice a week to maintain sub-confluence.
Approximately 3000 viable Huh-ET cells (100 μl) are plated per well in a white opaque 96-well microtiter plate. The cell culture media used for the assay is the same as described above except that it contains no G418 and no phenol red. After an incubation period of 3-4 hours at 37° C. in a 5% CO2 incubator, compounds (100 μl) are added at various concentrations. Cells are then further incubated for 4 days at 37° C. in a 5% CO2 incubator. Thereafter, the culture media is removed and cells are lysed by the addition of 95 μL of the luciferase buffer (luciferin substrate in buffered detergent). Cell lysates are incubated at room temperature and protected from direct light for at least 10 minutes. Plates are read for luciferase counts using a luminometer (Wallac MicroBeta Trilux, Perkin Elmer™, MA, USA).
Curves are fitted to data points using nonlinear regression analysis, and IC50s are interpolated from the resulting curve using GraphPad Prism software, version 2.0 (GraphPad Software Inc., San Diego, Calif., USA).
For orientation: In a reporter assay the amount or activity of a reporter protein is the signal.
On to `COC(=O)N[C@H](C(=O)N1C[C@@H](C)C[C@H]1c1ncc(-c2ccc(-c3ccc(-c4ccc5[nH]c([C@@H]6C[C@H](C)CN6C(=O)[C@H](C(C)C)N(C)C(=O)OC)nc5c4)cc3)cc2)[nH]1)C(C)C` [Compound 7, ((S)-1-{(2S,4S)-2-[5-(4′-{2-[(2S,4S)-1-((S)-2-Methoxycarbonylamino-3-methyl-butyryl)-4-methyl-pyrrolidin-2-yl]-1H-imidazol-4-yl}-biphenyl-4-yl)-1H-benzoimidazol-2-yl]-4-methyl-pyrrolidine-1-carbonyl}-2-methyl-propyl)-methyl-carbamic acid methyl ester], for which the EC50 is no more than 5 nM. Consider `COC(=O)NC(C(=O)N1C[C@@H](C)C[C@H]1c1nc2cc(C#Cc3cc4sc(-c5c[nH]c([C@@H]6C[C@H](C)CN6C(=O)[C@@H](NC(=O)OC)C(C)C)n5)cc4s3)ccc2[nH]1)C(C)C` (stereo partly shown) [Compound 45], for which the EC50 was no more than 5 nM. In the case of `COC(=O)N[C@H](C(=O)N1C[C@@H](C)CC1c1nc2cc(C#Cc3ccc(C#Cc4cnc([C@@H]5C[C@H](C)CN5C(=O)[C@@H](NC(=O)OC)C(C)C)[nH]4)cc3)ccc2[nH]1)C(C)C` (stereo partly shown) [Compound 29], the EC50 was no more than 5 nM. As for `COC(=O)N[C@H](C(=O)N1C[C@H](C)C[C@H]1c1nc(-c2ccc(-c3ccc(-c4ccc5[nH]c([C@@H]6C[C@H](C)CN6C(=O)[C@@H](NC(=O)OC)C(C)C)nc5c4)cc3)cc2)c[nH]1)C(C)C` [Compound 47], the EC50 is no more than 5 nM.

As for `COC(=O)N[C@H](C(=O)N[C@H](C(=O)N1C[C@@H](C)C[C@H]1c1nc2cc(-c3ccc(-c4ccc(-c5c[nH]c([C@@H]6C[C@H](C)CN6C(=O)[C@@H](NC(=O)OC)C(C)C)n5)cc4)cc3)ccc2[nH]1)C(C)C)C(C)C` [Compound 56], the EC50 was no more than 5 nM. In the case of `COC(=O)N[C@H](C(=O)N1C[C@@H](C)C[C@H]1c1ncc(-c2csc(-c3ccc(-c4ccc5[nH]c([C@@H]6C[C@H](C)CN6C(=O)[C@@H](NC(=O)OC)C(C)C)nc5c4)cc3)c2)[nH]1)C(C)C` [Compound 14], the EC50 was no more than 5 nM. With `COC(=O)N[C@H](C(=O)N1C[C@@H](C)C[C@H]1c1nc2cc(-c3ccc(-c4ccc(-c5cnc([C@@H]6C[C@H](C)CN6C(=O)[C@H](C(C)C)N(C)C(=O)OC)[nH]5)cc4)cc3)ccc2[nH]1)C(C)C` [Compound 8, Methyl ((S)-1-((2S,4S)-2-(4-(4′-(2-((2S,4S)-1-((S)-2-((methoxycarbonyl)amino)-3-methylbutanoyl)-4-methylpyrrolidin-2-yl)-3H-benzo[d]imidazol-6-yl)-[1,1′-biphenyl]-4-yl)-1H-imidazol-2-yl)-4-methylpyrrolidin-1-yl)-3-methyl-1-oxobutan-2-yl)(methyl)carbamate], the EC50 was no more than 5 nM. For the compound `COC(=O)N[C@H](C(=O)N1C[C@@H](C)C[C@H]1c1nc(-c2ccc3nc(-c4ccc5[nH]c([C@@H]6C[C@H](C)CN6C(=O)[C@@H](NC(=O)OC)C(C)C)nc5c4)ccc3c2)c[nH]1)C(C)C` [Compound 34], the EC50 was no more than 5 nM. In the case of `COC(=O)N[C@H](C(=O)N1C[C@@H](C)C[C@H]1c1nc(-c2ccc(C#Cc3ccc4[nH]c([C@@H]5C[C@H](C)CN5C(=O)[C@@H](NC(=O)OC)C(C)C)nc4c3)cc2)c[nH]1)C(C)C` [Compound 9, Methyl N-[(1S)-1-[(2S,4S)-2-[4-[4-[2-[2-[(2S,4S)-1-[(2S)-2-(methoxycarbonylamino)-3-methyl-butanoyl]-4-methyl-pyrrolidin-2-yl]-1H-benzimidazol-5-yl]ethynyl]phenyl]-1H-imidazol-2-yl]-4-methyl-pyrrolidine-1-carbonyl]-2-methyl-propyl]carbamate] it was no more than 5 nM. As for `COC(=O)N(C)[C@H](C(=O)N1C[C@@H](C)C[C@H]1c1ncc(-c2ccc(-c3ccc(-c4ccc5[nH]c([C@@H]6C[C@H](C)CN6C(=O)[C@H](C(C)C)N(C)C(=O)OC)nc5c4)cc3)cc2)[nH]1)C(C)C` [Compound 6, Methyl N-[(1S)-1-[(2S,4S)-2-[4-[4-[4-[2-[(2S,4S)-1-[(2S)-2-[methoxycarbonyl(methyl)amino]-3-methyl-butanoyl]-4-methyl-pyrrolidin-2-yl]-1H-benzimidazol-5-yl]phenyl]phenyl]-1H-imidazol-2-yl]-4-methyl-pyrrolidine-1-carbonyl]-2-methyl-propyl]-N-methyl-carbamate], the EC50 was no more than 5 nM. On to `COC(=O)N[C@H](C(=O)N1C[C@@H](C)C[C@H]1c1nc(-c2ccc(-c3ccc(-c4cc(F)c5[nH]c([C@@H]6C[C@H](C)CN6C(=O)[C@@H](NC(=O)OC)C(C)C)nc5c4)cc3)cc2)c[nH]1)C(C)C` [Compound 32], for which the EC50 was no more than 5 nM. Take `O=C(OCc1ccccc1)N1CCCC1c1ncc(-c2ccc(C#Cc3ccc4[nH]c(C5CCCCN5C(=O)OCc5ccccc5)nc4c3)cc2)[nH]1` (stereo not shown) [Compound 1]: the EC50 fell in the range of 5 to 5000 nM. Take `COC(=O)N[C@H](C(=O)N1C[C@@H](C)C[C@H]1c1nc(-c2ccc3sc(-c4ccc5[nH]c([C@@H]6C[C@H](C)CN6C(=O)[C@@H](NC(=O)OC)C(C)C)nc5c4)cc3c2)c[nH]1)C(C)C` [Compound 33]: the EC50 was no more than 5 nM. Take `COC(=O)N[C@H](C(=O)N1C[C@@H](C)C[C@H]1c1ncc(-c2ccc(-c3cc4sc(-c5ccc6nc([C@@H]7C[C@H](C)CN7C(=O)[C@@H](NC(=O)OC)C(C)C)[nH]c6c5)cc4s3)cc2)[nH]1)C(C)C` [Compound 25]: the EC50 is no more than 5 nM. With `COC(=O)N[C@H](C(=O)N1C[C@@H](C)C[C@H]1c1nc(-c2cc3cc(-c4ccc5[nH]c([C@@H]6C[C@H](C)CN6C(=O)[C@@H](NC(=O)OC)C(C)C)nc5c4)sc3s2)c[nH]1)C(C)C` [Compound 43], the EC50 was no more than 5 nM. In the case of `COC(=O)N[C@H](C(=O)N1C[C@@H](C)C[C@H]1c1nc(-c2ccc(-c3ccc(-c4ccc5[nH]c([C@@H]6C[C@H](C)CN6C(=O)[C@@H](NC(=O)OC)C(C)C)nc5c4)s3)cc2)c[nH]1)C(C)C` [Compound 27] it was no more than 5 nM; in that of `COC(=O)N(C)C(C(=O)N1C[C@@H](C)C[C@H]1c1nc(-c2ccc(C#Cc3ccc4[nH]c([C@@H]5C[C@H](C)CN5C(=O)C(C(C)C)N(C)C(=O)OC)nc4c3)cc2)c[nH]1)C(C)C` (stereo in doubt) [Compound 10, Methyl N-[(1S)-1-[(2S,4S)-2-[4-[4-[2-[2-[(2S,4S)-1-[(2S)-2-[methoxycarbonyl-(methyl)amino]-3-methyl-butanoyl]-4-methyl-pyrrolidin-2-yl]-1H-benzimidazol-5-yl]ethynyl]phenyl]-1H-imidazol-2-yl]-4-methyl-pyrrolidine-1-carbonyl]-2-methyl-propyl]-N-methyl-carbamate], no more than 5 nM; in that of `COC(=O)N[C@H](C(=O)N1C[C@@H](C)C[C@H]1c1nc(-c2ccc3cc(-c4ccc5[nH]c([C@@H]6C[C@H](C)CN6C(=O)[C@@H](NC(=O)OC)C(C)C)nc5c4)ccc3c2)c[nH]1)C(C)C` [Compound 20], no more than 5 nM.

For `COC(=O)N[C@H](C(=O)N1C[C@@H](C)C[C@H]1c1nc2cc(-c3ccc(-c4ccc(-c5c[nH]c([C@@H]6C[C@H](C)CN6)n5)cc4)cc3)ccc2[nH]1)C(C)C` [Compound 51], the EC50 is no more than 5 nM.

`COC(=O)N[C@H](C(=O)N1C[C@@H](C)CC1c1nc2cc(-c3ccc4nc(-c5c[nH]c([C@@H]6C[C@H](C)CN6C(=O)[C@@H](NC(=O)OC)C(C)C)n5)cn4c3)ccc2[nH]1)C(C)C` (stereo partly shown) [Compound 42]: the EC50 lay within 5 to 5000 nM. Take `CC[C@H]1C[C@@H](c2nc(-c3ccc(-c4ccc(-c5ccc6[nH]c([C@@H]7C[C@H](CC)CN7C(=O)[C@@H](NC(=O)OC)C(C)C)nc6c5)cc4)cc3)c[nH]2)N(C(=O)[C@@H](NC(=O)OC)C(C)C)C1` [Compound 17]: the EC50 is no more than 5 nM. With `COC(=O)N[C@H](C(=O)N[C@H](C(=O)N1C[C@@H](C)C[C@H]1c1nc(-c2ccc(-c3ccc(-c4ccc5[nH]c([C@@H]6C[C@H](C)CN6C(=O)[C@@H](NC(=O)OC)C(C)C)nc5c4)cc3)cc2)c[nH]1)C(C)C)C(C)C` [Compound 55], the EC50 is no more than 5 nM.

The values above are taken from patent US8779156B2, “Analogues for the treatment or prevention of flavivirus infections” (Vertex Pharmaceuticals Incorporated, priority 2010, dated 2014).
